For one compound, EC50, CC50 and half-life results are on record in PMC9146377, “Design and Synthesis of Novel Bis-Imidazolyl Phenyl Butadiyne Derivatives as HCV NS5A Inhibitors” (Pharmaceuticals, 2022).

Molecules are shown by their SMILES. pEC50: −log10 of the molar value. Like-named read-outs stand apart in the source and are kept apart here.

The test system of data set [1] is HCV genotype 1b Con-1 subgenomic replicon. Put plainly: Anti-HCV luciferase assay, genotype 1b (Con1) subgenomic replicon in Huh5-2 cells. The format is cell-based, Hepatitis C virus. Conditions: mean of three experiments. The protocol:
(§1) All synthesized compounds were tested against HCV genotype 1b Con-1 subgenomic replicon in the Huh-5-2 stable cell line. Specifically, their activity against viral replication was estimated by measuring firefly luciferase, which is co-expressed by the bicistronic replicon, and their half-maximal effective concentrations (EC50) were determined. In parallel, the half-maximal cytotoxic concentrations (CC50) of the compounds were estimated, and their selective indexes (SI50: CC50/ EC50) were calculated. All novel synthesized compounds were active against HCV 1b with EC50 < 1 µM except for compound 4b (Table 3).
Huh5-2 [65] and Huh7-JFH1 [66] stable cell lines harbor the subgenomic HCV reporter replicon I389luc-ubi-neo/NS3-3′/Con1/5.1 (genotype 1b; strain Con1) and I389luc-ubi-neo/NS3-3′_dg_JFH1 (genotype 2a, JFH1 strain), respectively (kindly provided by R. Bartenschlager, Heidelberg University, Heidelberg, Germany). Huh7.5-3a and Huh7.5-4a stable cell lines harbor the subgenomic HCV reporter replicon S52-SG (Feo) (AII) (genotype 3a; S52 strain) and ED43-SG (Feo) (VYG) (genotype 4a; ED43 strain), respectively (viral constructs kindly provided by C.M. Rice, Rockefeller University, New York, NY, USA). These replicons carry as a first cistron firefly luciferase (F-Luc) and neomycin phosphotransferase genes under the translational control of the HCV internal ribosome entry site (IRES), followed by HCV NS3 to NS5B proteins under the control of the EMCV IRES.
The anti-HCV assay in replicon cells was performed by seeding 1 × 10^4 cells per well in a 96-well plate. After 24 h of incubation at 37 °C (5% CO2) and medium removal, serial dilutions of the test compounds in complete DMEM were added. Cells were lysed after 72 h, and F-Luc activity was measured. The anti-HCV assay for the full-length viral construct H77S.3/GLuc2A was performed after electroporation of Huh7-Lunet cells with viral RNA. Cells were seeded in 96-well plates, the medium was removed 24 h after electroporation, and serial dilutions of the compounds in complete DMEM were added. At 72 h post-treatment, cell supernatants were collected, and G-Luc activity was measured. In addition, the cells were lysed for total protein quantification.
Relative luminescence units (RLU) were expressed as a percentage of the respective units derived from DMSO-treated cells (control). The half-maximal effective concentration (EC50), defined as the concentration of compound that reduces luciferase signal by 50%, was calculated by dose-response curve analysis using Prism 5.0 software (GraphPad Software Inc., San Diego, CA, USA).
The F-Luc activity was measured using the Luciferase Assay System (Promega, Madison, WI, USA), as recommended by the manufacturer. The G-Luc activity was measured using 12 μM coelenterazine (Promega) in assay buffer (50 mM potassium phosphate, pH 7.4, 500 mM NaCl, 1 mM EDTA). Measurements were carried out using a GloMax 20/20 single tube luminometer (Promega) for 10 s. The F-Luc activity was normalized to the total protein amount determined using the Bradford assay reagent (Pierce, Waltham, MA, USA).
On the technique in general: A replicon is a self-replicating genome or part of one, used to study replication in cells.

Data set [2] has as its system (+) strand HCV RNA, Con1 (GT 1b) subgenomic replicon. Put plainly: RT-qPCR quantification of HCV RNA in Huh5-2 replicon cells. Conditions: normalized to YWHAZ. The format is cell-based, Hepatitis C virus. The protocol:
The potency of compound 10a measured by the luciferase assay in HCV GT 1b was confirmed at the level of viral RNA and NS5A protein expression. Huh5-2 replicon cells were treated with 10a in serial dilutions, or its solvent DMSO (control), and viral RNA was quantified by reverse transcription-quantitative polymerase chain reaction (RT-qPCR). NS5A protein levels were evaluated by indirect immunofluorescence combined with confocal microscopy analysis. […] Nuclei were stained with propidium iodide (PI) as a cell viability control.
Extraction of total RNA from Huh5-2 cells was performed using TRIzol reagent (Ambion, Austin, TX, USA), according to the manufacturer’s instructions. Replicon RNA was quantified with reverse transcription (RT) and quantitative real-time polymerase chain reaction (qPCR). RT was performed using a Con1 IRES-specific primer (IRES-R: 5′-[…]-3′) and Moloney Murine Leukemia Virus (MMLV) reverse transcriptase (Promega). […]
Figure 6 Inhibition of HCV RNA and protein expression levels exerted by compound 10a in HCV Con1 (GT 1b) subgenomic replicon cell line. […] Values are expressed as a percentage of those obtained from cells treated with the solvent (control). […]

Data set [3] can be described thus: Cytotoxicity assay (intracellular ATP levels) in Huh5-2 replicon cells. The format is cell-based. The conditions noted are these: human, Huh5-2 cells, read-out: HCV Replicon 1b CC50. On the procedure: as §1
Intracellular ATP levels were measured to determine the cytotoxicity of the compounds in the treated cells. In 96-well plates, 10^4 cells per well were seeded, incubated with serial dilutions of the compounds or DMSO as a control for 72 h at 37 °C (5% CO2) and lysed for ATP measurement. ATP levels were measured using the ViaLight HS BioAssay kit (Lonza, Basel, Switzerland) in a GloMax 20/20 single-tube luminometer (Promega) for 1 s, according to the manufacturer’s protocol. Values were normalized to total protein amounts and used to determine the compound concentration causing 50% cell death (CC50). Nonlinear regression analysis was performed using Prism 5.0 software (GraphPad Software Inc., San Diego, CA, USA).

Data set [4] is described as follows: Phase I and phase II metabolic stability in human liver S9 fractions. The format is in vitro ADME. The conditions noted are these: LC-MS/MS, read-out: half-life time (t½). The protocol: This was done using human liver S9 fractions, following the previously reported protocol. A number of samples were taken at defined time points, and using LC-MS/MS, the remaining percentage of the parent compound was determined.

In the case of `COC(=O)N[C@@H](C(=O)N1CCC[C@H]1c1ncc(-c2cccc(C#CC#Cc3cccc(-c4cnc([C@@H]5CCCN5C(=O)[C@H](NC(=O)OC)c5ccccc5)[nH]4)c3)c2)[nH]1)c1ccccc1` [Compound 10a, Dimethyl ((1R,1′R)-((2S,2′S)-((buta-1,3-diyne-1,4-diylbis(3,1-phenylene))bis(1H-imidazole-5,2-diyl))bis(pyrrolidine-2,1-diyl))bis(2-oxo-1-phenylethane-2,1-diyl))dicarbamate], the negative-log EC50 (pEC50) (as a rule, the EC50 on a negative log10 scale, so that one unit is a factor of ten) in data set [1] (Hepatitis C virus, Huh-5-2, 72 h, read-out: HCV Replicon 1b EC50, Huh5-2 cells, Con1 strain, F-Luc, 72 h) is 10.00; in data set [1] (Huh5-2 cells, Con1 strain, F-Luc, 72 h, read-out: HCV Replicon 1b EC50) it was 10.00; in data set [2] (Hepatitis C virus, GT1B, Huh-5-2, RT-qPCR), 9.59; in data set [2] (RT-qPCR), 9.60. In data set [3], the CC50 – broadly, the concentration at which the toxic effect on the cells reaches its halfway point – at 72 h is more than 100 µM. For the same compound, the half-life (as a rule, the time needed for the level to fall by half in the phase considered) in data set [4] is more than 120 min.
